Laboratory results taken from ChEMBL document CHEMBL1221377, “SAR development of a series of 8-azabicyclo[3.2.1]octan-3-yloxy-benzamides as kappa opioid receptor antagonists. Part 2” (Bioorg Med Chem Lett, 2010).

What was measured:
[1] = Oral bioavailability in Sprague-Dawley rat at 2 umol/kg; format: ADME, organism-based; settings: in vivo
[2] = Intrinsic clearance in rat liver microsomes; format: ADME, Microsome
[3] = Ratio of drug level brain to plasma in Sprague-Dawley rat at 2 umol/kg, iv; format: ADME; settings: brain and plasma, read-out: BPR
[4] = tested on: Rattus norvegicus; test: Clearance in Sprague-Dawley rat plasma at 2 umol/kg, iv; format: ADME, organism-based; settings: in vivo
[5] = Half life in Sprague-Dawley rat at 2 umol/kg, iv; format: ADME, organism-based; settings: in vivo
[6] = Volume of distribution at steady state in Sprague-Dawley rat at 2 umol/kg, iv; format: ADME, organism-based; settings: in vivo, read-out: Vdss
[7] = Apparent permeability from apical to basolateral side of MDCK cells expressing MDR1; format: ADME, cell-based, Canis lupus familiaris; settings: dog
[8] = Intrinsic clearance in human liver microsomes; format: ADME, Microsome
[9] = Ratio of drug level brain to plasma in Sprague-Dawley rat at 5 umol/kg, iv; format: ADME; settings: brain and plasma, read-out: BPR

Row | SMILES | bioavailability [1] [%] | microsomal CLint [2] [µL/min/mg] | Kp [3] | CL [4] [µL/min/mg] | half-life [5] [h] | Vd [6] [L/kg] | Papp A→B [7] [×10⁻⁶ cm/s] | microsomal CLint [8] [µL/min/mg] | Kp [9]
1 | NC(=O)c1cccc(C[C@H]2C[C@H]3CC[C@@H](C2)N3Cc2ccccc2)c1 | 5 | 65 | 1.9 | 124 | 1.3 | 6.6 | 14 | < 4 | –
2 | CN(C)C(=O)N[C@H]1CC[C@@H](CCN2[C@@H]3CC[C@H]2C[C@@H](Oc2cccc(C(N)=O)c2)C3)CC1 | – | 30 | – | – | – | – | 1.9 | < 4 | 0.22
